Data on two molecules can be found in US20060052440A1, “Medicinal composition for treating sudden deafness” (Nichimo Co., Ltd., priority 2002, published 2006).

This assay in a line: SOD-like activity (superoxide scavenging activity) by ESR spin trap method, hypoxanthine-xanthine oxidase system with DMPO. Type of assay: biochemical. Particulars: for SOD-like activity after emulsification: after emulsification (Tween-80 or other emulsifier), figures in parentheses; for SOD-like activity (superoxide scavenging activity): not emulsified, extracted with untreated 0.1 M phosphate buffer. An excerpt:
This superoxide scavenging activity will be described in further detail below. Superoxides (O2') are a type of active oxygen that are produced by neutrophils and macrophages and protect the body from impurities, but also are the cause of pulmonary emphysema, cataracts, arteriosclerosis, psoriasis, and the like. These superoxides are, therefore, a double-edged sword. The enzyme activity of superoxide dismutase (SOD) and superoxide scavenging activity (SOSA or SOD-like activity) are examples of the ability of food products to eliminate O2'. The former is an enzyme and is therefore broken down by digestive enzymes and goes virtually unabsorbed in vivo when taken orally. Consequently, the latter is promising for food products. […] ESR is a method for measuring SOD-like activity and assessing the ability of […] to scavenge O2'. […] This method is also called the spin trap method. In accordance with preparation by this spin trap method, only the water-soluble components are extracted in order to extract the component with SOD-like activity contained in a sample with 0.1 M phosphate buffer. […] Consequently, measuring superoxide […] activity with the isoflavone pre-emulsified in a small amount of oil or fat was contemplated.

As for `O=c1c(-c2ccc(O)cc2)coc2cc(O)ccc12` [Daidzein, daidzein], the “SOD-like activity after emulsification” value is listed as “(300 or units/g” and the “SOD-like activity (superoxide scavenging activity)” value was 300 or less units/g.
As to `O=c1c(-c2ccc(O)cc2)coc2cc(O)cc(O)c12` [Genistein, genistein], the “SOD-like activity after emulsification” value is given as “(300 or units/g” and the “SOD-like activity (superoxide scavenging activity)” value is 300 or less units/g.
